Columns and labels:
[1] = system: L-1210 leukemia; assay: Anti-tumour effect against L-1210 leukemia on mouse; assay type: in vivo; details: T/C x 100 of average survival days; dose 10 mg/kg intraperitoneally once a day for 5 days, starting 24 hours after transplantation of 1 x 10^5 cells/animal
Experimental: Anti-tumour effect against L-1210 leukemia on mouse: • The successively cultured L-1210 leukemia cells in the ascites of a mouse were transplanted intraperitoneally to a group of the mouse at a rate of 1 x 10^5 cells/animal, and after 24 hours of the transplantation, a solution of each of the present compounds dissolved in an aqueous physiological saline solution was intraperitoneally administered to the group of the mouse once a day for 5 days running. By observing the state of the mice, the average survival days of the administered mice (T) and those of the control group (C) were obtained to calculate the prolongation ratio of the mouse's life (T/C x 100).

[2] = Side effects: nephrotoxicity (albuminurea); assay type: in vivo, JCL-ICR mouse; details: orally 10 mg/kg once a day for 5 days; for Nephrotoxicity: albuminurea
Experimental: Side effects: • The side effects of the present compounds were examined using JCL-ICR mouse as the experimental animal.
Each of the present compounds was orally administered to a group of the mouse at a daily dose rate of 10 mg/kg once a day for 5 days running, the same procedure being carried out on the other group of the mouse by administering BCNU at the same rate.

[3] = system: V-7 tumour; assay: Anti-tumour effect against V-7 tumour on a rabbit; assay type: in vivo; details: survival days vs not-administered control rabbits; dose 10 mg/kg on the 7th day and 11th day of the transplantation
Experimental: Anti-tumour effect against V-7 tumour on a rabbit: • The cancer cells prepared by extirpating the solid tumour transplated and proliferated in the femoral part of a rabbit, cutting finely and having passed through stainless steel mesh of Tyler standard mesh of ? 200 were transplanted to the thinner muscle of the femoral part of a rabbit by using an injector at a rate of 1.5 x 10^7 cells/animal. On the 7th day and llth day of the transplantation, the present compound was administered to the transplanted rabbit. The prolongation ratio of the rabbit was calculated by the comparison of the survival days of the administered rabbits and the not-administered control rabbits.

[4] = Solubility in water; assay type: physicochemical
[5] = system: Escherichia coli; assay: Antibacterial activity in vitro, agar plate dilution; assay type: cell-based; design: key: + means the degree of inhibition of the growth of E. Coli; the larger the number of +, the larger the inhibition; ++: + means the degree of inhibition of the growth of E. Coli; the larger the number of +, the larger the inhibition; +++: + means the degree of inhibition of the growth of E. Coli; the larger the number of +, the larger the inhibition; - means that no inhibition of the growth of E. coli was observed; details: 18 hours at 37°C, Heart infusion agar
Experimental: Antibacterial activity: • i) A series of 2 times dilution of aqueous solution of each of the present compounds were prepared, and a plate culture medium was prepared by mixing each series with Heart infusion agar culture medium. A strain of Escherichia coli cultured in trypto-soy bouillon at 37°C for 18 hours was inoculated on the thus prepared culture medium, and after culturing for 18 hours at 37°C, the degree of proliferation of the inoculated bacteria was observed, the inoculum being a plutinum loop-full.

Row | Structure (SMILES) | Prolongation ratio [1] [%] | Nephrotoxicity [2] | Prolongation ratio [3] [%] | Solubility in Water [4] | degree of inhibition of the growth of E. coli ([5]; Diluted concentration 1/2) | degree of inhibition of the growth of E. coli ([5]; Diluted concentration 1/4) | degree of inhibition of the growth of E. coli ([5]; Diluted concentration 1/8) | degree of inhibition of the growth of E. coli ([5]; Diluted concentration 1) | degree of albuminurea ([2]; result in words)
1 | CCC(CO)(CO)NC(=O)N(CCCl)N=O [2-Ethyl-2-[3-(2-chloroethyl)-3-nitrosoureido]-1,3-propanediol] | 405 | + (+ means that albuminurea was observed in one to two animals of the total ten animals.) | 230 | good | ++ | + | + | +++ | 
2 | CC(CO)(CO)NC(=O)N(CCCl)N=O [2-Methyl-2-[3-(2-chloroethyl)-3-nitrosoureido]-1,3-propanediol] | 410 | + (+ means that albuminurea was observed in one to two animals of the total ten animals.) | 205 | good | ++ | ++ | + | +++ | 
3 | CC(NC(=O)N(CCCl)N=O)C(O)CO (centres unmarked) [3-[3-(2-Chloroethyl)-3-nitrosoureido]-1,2-butanediol] | 430 | + (+ means that albuminurea was observed in one to two animals of the total ten animals.) | 210 | good | ++ | + | + | +++ | 
4 | O=NN(CCCl)C(=O)NCC(O)CO (centres unmarked) [3-[3-(2-Chloroethyl)-3-nitrosoureido]-1,2-propanediol] | 420 | + (+ means that albuminurea was observed in one to two animals of the total ten animals.) | 215 | good | ++ | + | + | +++ | 
5 | O=NN(CCCl)C(=O)NCCCl [BCNU, 1,3-Bis(2-chloroethyl)-1-nitrosourea, reference compound] | 204 | +++ (+++ means that albuminurea was observed in eight to nine animals of the total ten animals.) | 140 | not soluble | + | - | - | + | severely
